Assay results reported in US20250332152A1, “INHALED THERAPY FOR CARDIAC ARRHYTHMIA” (InCarda Therapeutics, Inc., priority 2021, published 2025).

How the values were obtained:
[1] = test system: recent-onset symptomatic AF; assay: Clinical study: cardioversion of recent-onset atrial fibrillation to sinus rhythm with orally inhaled flecainide; format: in vivo, human; conditions: 120 mg flecainide acetate (eTLD) by oral inhalation; for conversion rate (AF to sinus rhythm): cardioversion success at 90 minutes post-dose
Experimental: A flecainide acetate oral inhalation solution for acute cardioversion of recent-onset symptomatic AF was administered to 80 patients to determine if height, weight, and body mass index (BMI) are predictors of successful cardioversion of AF to sinus rhythm (SR) with the inhalation solution.
The flecainide formulation used in this study is described in TABLE 1.
In this study, for inhalation delivery of flecainide, an estimated total lung dose (eTLD) of 120 mg were calculated to account for losses of flecainide in the inhalation device and losses of flecainide in subjects' mouth and throat. An 120 mg eTLD was thereby used to denote the dose that actually reached the lungs of the subjects. By design, in all nebulizers there can be a residual volume or mass of drug solution that stays in the nebulizer, and there can also be a percentage of the aerosol caught by subject's throat and mouth. For instance, in this study, it was estimated that 30% of the aerosol was lost in subject's throat and mouth. Therefore the eTLD would be: eTLD=(100-30) %*amount of aerosolized drug that left nebulizer=70%*(amount of drug placed in nebulizer−amount of drug staying in nebulizer).
The AeroEclipse®II BAN inhaler was used for nebulization and inhalation of the exemplary flecainide formulations. It is available as an approved device in several countries across the world including European countries, USA, and Canada. The inhaler is a hand-held, breath actuated, jet nebulizer which operates through a source of compressed air available as medical air in the hospital ER. The AeroEclipse®BAN delivers a high respirable dose and an optimal particle size to reach the deeper lung regions to enable faster drug absorption. Flecainide acetate inhalation solution was transferred from the vial into the reservoir of the AeroEclipse®II BAN at a volume corresponding to the required dose to the lung. To administer an estimated total lung dose of […] flecainide acetate, the nebulizer was filled with 4.2 mL of Formulation A described in TABLE 1. The total volume filled in each dosing cup was based on the assumption of a 70% (v/v) lung deposition, a 12.5% (v/v) loss due to fugitive aerosol based on in-vitro experiments, and device retention of approximately 1.5 mL of the solution.
Participants in the study were administered the study medications according to the following guidelines: • Subject self-administers inhalation using the AeroEclipse® II BAN • Subject is seated upright in a comfortable chair or adjustable bed with table that has adjustable height in front (e.g. overbed table on casters) where the subject can rest his/her arms (e.g. overbed table on casters) from approximately 30 minutes prior to the start of inhalation up to at least 15 minutes after the last inhalation is completed. […]

[2] = Flecainide peak plasma concentration (Cmax) versus BMI classification in atrial fibrillation patients; format: in vivo, human; conditions: atrial fibrillation patients (n=81); 120 mg flecainide acetate via oral inhalation; both conversion and no conversion cohorts
Experimental: Logistic regression was performed to identify predictors of cardioversion success at 90 minutes post-dose, and potential interactions were examined by linear regression.
FIG. 6 is a chart depicting median Cmax versus BMI classification (normal (BMI<25), overweight (BMI≥25 and <30), obese/severe obese (BMI≥30)) in atrial fibrillation patients (n=81) administered 120 mg flecainide acetate via oral inhalation.

[3] = Solubility of flecainide acetate in water solution; format: physicochemical

O=C(NCC1CCCCN1)c1cc(OCC(F)(F)F)ccc1OCC(F)(F)F (stereo not drawn) [flecainide acetate]
conversion rate (AF to sinus rhythm) ([1]; obese patients (BMI≥30 and <35 kg/m^2)): 43%
conversion rate (AF to sinus rhythm) ([1]; overweight patients (BMI≥25 and <30 kg/m^2)): 47%
conversion rate (AF to sinus rhythm) ([1]; patients with normal BMI (<25 kg/m^2)): 53%
AF successfully converted to sinus rhythm ([1]; severely obese patients, 90 minutes post-dose): none
median flecainide peak plasma concentration (Cmax) versus BMI category [2]: positive correlation
solubility [3]: ~60 mg/mL
